Assay results published in patent US10568899B2, “Combinations of a mithramycin analogue and another chemotherapeutic agent for the treatment of triple negative breast cancer” (ENTRECHEM, S.L., priority 2015, dated 2020).

How the values were obtained:
HBL-100 cells = test: MTT-based cell proliferation assay, single drugs and combinations (CI by CalcuSyn)
Description: (§1) All cell lines were cultured at 37° C. in a humidified atmosphere in the presence of a mixture of 5% CO2 and 95% air. Cells were grown in DMEM or in RPMI medium containing high glucose concentration (4,500 mg/liter) and antibiotics (penicillin at 100 mU/ml, streptomycin at 100 μg/ml) and supplemented with 10% FBS. Cell lines were provided by Drs. J. Losada and A. Balmain, (originally from Dr. J. W. Gray's Laboratory who in turn obtained them from the ATCC or from collections development in the laboratories of Drs. S. Ethier and A. Gazdar, to avoid errors occurring when obtained through “second-hand” sources) [Cancer Cell. (2006) 10:515-527]. Cell identities were verified by STR analyses [Oncogene (2014) 33:148-156].
(§2) Cells were plated in 24-well plates at 10,000-20,000 cells/well and cultured overnight in DMEM or RPMI+10% FBS. […] Cell proliferation was analyzed 48 and 72 hours later by an MTT-based assay as described in Cancer Res. (2005) 65:6801-6810.
(§3) Results are plotted as the mean±SD values of quadruplicates from two experiments.
(§4) To explore whether F(I) potentiated the action of drugs used in the therapy of TNBC, drug combination experiments were performed, and the results analyzed by the Chou and Talalay algorithm [Adv. Enzyme Regul.

MDA-MB-231 cells = test: as above
Description: as §1, §2, §3, §4

[1] = tested on: MDA-MB-231 xenografted tumors; test: Xenograft study, tumour volume; type: in vivo, mice; conditions: F(I) 12 mg/kg intravenously every 3 days; FIG. 2
Description: Mice were manipulated at the animal facility of the CIC in Salamanca following legal guidelines. Female BALB/c nu/nu mice (7 weeks old) were obtained from Charles River Laboratories (Wilmington, Mass., USA). A total of 5×10^6 MDA-MB231 cells in 100 μL of DMEM and 100 μL of Matrigel (BD Biosciences) were injected subcutaneously into the right and left flank of each mouse. When tumours reached a mean volume of 100 mm^3, animals (n=32) were randomized into four groups (with equal average tumour volumes) (vehicle n=8, F(I) n=8, docetaxel n=8, and F(I)+docetaxel n=8). […] Tumour diameters were serially measured by callipers twice per week and tumour volumes were calculated by the following formula: volume=width^2×length/2. Mice were sacrificed on day 41. For biochemical and drug accumulation analyses, tumor samples were obtained after sacrifice of the animals by CO2 inhalation, and 6 hours after being treated with the different drugs, and immediately frozen in liquid nitrogen. The tumors were minced, washed with PBS, and homogenized (Dispomix, L&M Biotech, Holly Springs, N.C., USA) in ice-cold lysis buffer (1.5 mL/100 mg tumor). […]
Comparisons of continuous variables between two groups for the mice tumor model experiments were performed using a two-sided Student's t-test. […] All data were analyzed using the statistical software SPSS 21.0 (SPSS Inc., Chicago, Ill.). […]

[2] = tested on: TNBC cell lines (HCC-70, HCC-3153, BT549, MDA-MB-231, HCC-1937, HBL-100, HCC-1187 and HS578T); test: MTT metabolism in panel of TNBC cell lines; type: cell-based
Description: as §1
Cells were plated in 24-well plates at 10,000-20,000 cells/well and cultured overnight in DMEM or RPMI+10% FBS. The next day medium was replaced with DMEM or RPMI containing different concentrations of F(I). Cell proliferation was analyzed 48 and 72 hours later by an MTT-based assay as described in Cancer Res. (2005) 65:6801-6810. […]
To analyze the potential antineoplastic effect of F(I) on TNBC, its action on a panel of eight representative TNBC cell lines (HCC-70, HCC-3153, BT549, MDA-MB-231 (MDAMB231), HCC-1937, HBL-100 (HBL100), HCC-1187 and HS578T) using MTT metabolism as readout of the effect of F(I) on cell number was evaluated. […]

[3] = Body weight of treated mice; type: in vivo
Description: (§5) Mice were manipulated at the animal facility of the CIC in Salamanca following legal guidelines. Female BALB/c nu/nu mice (7 weeks old) were obtained from Charles River Laboratories (Wilmington, Mass., USA). A total of 5×10^6 MDA-MB231 cells in 100 μL of DMEM and 100 μL of Matrigel (BD Biosciences) were injected subcutaneously into the right and left flank of each mouse. When tumours reached a mean volume of 100 mm^3, animals (n=32) were randomized into four groups (with equal average tumour volumes) (vehicle n=8, F(I) n=8, docetaxel n=8, and F(I)+docetaxel n=8). Mice were treated every four days intravenously with 12 mg/kg of F(I), and weekly, intraperitoneally with docetaxel 15 mg/kg. Tumour diameters were serially measured by callipers twice per week and tumour volumes were calculated by the following formula: volume=width^2×length/2. Mice were sacrificed on day 41. For biochemical and drug accumulation analyses, tumor samples were obtained after sacrifice of the animals by CO2 inhalation, and 6 hours after being treated with the different drugs, and immediately frozen in liquid nitrogen. The tumors were minced, washed with PBS, and homogenized (Dispomix, L&M Biotech, Holly Springs, N.C., USA) in ice-cold lysis buffer (1.5 mL/100 mg tumor). This homogenate was centrifuged at 10,000×g for 20 minutes at 4° C., and the supernatants were transferred to new tubes. […]

[4] = F(I) concentration in the tumors; type: in vivo; conditions: 6 hours after the last treatment, F(I) 12 mg/kg intravenously, two tumors from two different mice
Description: as §5

[5] = cited from earlier work

Cc1nc(Nc2ncc(C(=O)Nc3c(C)cccc3Cl)s2)cc(N2CCN(CCO)CC2)n1 [Dasatinib, dasatinib]
MTT metabolism mean, Assay 1 (HBL-100 cells; Dasatinib 0.5 μM alone): 61.25%
MTT metabolism mean, Assay 2 (HBL-100 cells; Dasatinib 0.5 μM alone): 65.30%
MTT metabolism mean, Assay 1 (HBL-100 cells; Dasatinib 1.0 μM alone): 61.08%
MTT metabolism mean, Assay 2 (HBL-100 cells; Dasatinib 1.0 μM alone): 64.94%
MTT metabolism mean, Assay 1 (HBL-100 cells; Dasatinib 2.0 μM alone): 58.58%
MTT metabolism mean, Assay 2 (HBL-100 cells; Dasatinib 2.0 μM alone): 58.48%
MTT metabolism mean, Assay 1 (MDA-MB-231 cells; Dasatinib 0.5 μM alone): 65.29%
MTT metabolism mean, Assay 2 (MDA-MB-231 cells; Dasatinib 0.5 μM alone): 62.89%
MTT metabolism mean, Assay 1 (MDA-MB-231 cells; Dasatinib 1.0 μM alone): 59.58%
MTT metabolism mean, Assay 2 (MDA-MB-231 cells; Dasatinib 1.0 μM alone): 63.07%
MTT metabolism mean, Assay 1 (MDA-MB-231 cells; Dasatinib 2.0 μM alone): 56.05%
MTT metabolism mean, Assay 2 (MDA-MB-231 cells; Dasatinib 2.0 μM alone): 55.89%

CC(=O)O[C@@]12CO[C@@H]1C[C@H](O)[C@@]1(C)C(=O)[C@H](O)C3=C(C)[C@@H](OC(=O)[C@H](O)[C@@H](NC(=O)OC(C)(C)C)c4ccccc4)C[C@@](O)([C@@H](OC(=O)c4ccccc4)[C@H]21)C3(C)C [Docetaxel, docetaxel]
MTT metabolism mean, Assay 1 (HBL-100 cells; Docetaxel 2.5 nM alone): 96.93%
MTT metabolism mean, Assay 2 (HBL-100 cells; Docetaxel 2.5 nM alone): 83.41%
MTT metabolism mean, Assay 1 (HBL-100 cells; Docetaxel 5 nM alone): 85.11%
MTT metabolism mean, Assay 2 (HBL-100 cells; Docetaxel 5 nM alone): 70.61%
MTT metabolism mean, Assay 1 (HBL-100 cells; Docetaxel 10 nM alone): 55.03%
MTT metabolism mean, Assay 2 (HBL-100 cells; Docetaxel 10 nM alone): 54.59%
MTT metabolism mean, Assay 1 (MDA-MB-231 cells; Docetaxel 2.5 nM alone): 84.46%
MTT metabolism mean, Assay 2 (MDA-MB-231 cells; Docetaxel 2.5 nM alone): 60.92%
MTT metabolism mean, Assay 1 (MDA-MB-231 cells; Docetaxel 5 nM alone): 69.03%
MTT metabolism mean, Assay 2 (MDA-MB-231 cells; Docetaxel 5 nM alone): 51.36%
MTT metabolism mean, Assay 1 (MDA-MB-231 cells; Docetaxel 10 nM alone): 38.17%
MTT metabolism mean, Assay 2 (MDA-MB-231 cells; Docetaxel 10 nM alone): 44.50%

CO[C@@H]([C@@H]1Cc2cc3cc(O[C@H]4CC(O[C@H]5CC(O)[C@H](O)C(C)O5)[C@H](O)C(C)O4)c(C)c(O)c3c(O)c2C(=O)[C@H]1O[C@H]1CC(O[C@H]2CC(O[C@H]3CC(O)[C@H](O)C(C)O3)[C@@H](O)C(C)O2)[C@H](O)C(C)O1)[C@@H](O)C(C)=O (stereo partly drawn) [F(I), demycarosyl-3D-β-D-digitoxosyl-mithramycin SK]
Effect on tumor growth [1]: inhibitory effect on tumor growth
IC50 ([2]; 72 hours of treatment, all cell lines (FIG. 1)): < 100 nM
Effect on MTT metabolism ([2]; all the TNBC cell lines studied, 48 or 72 hours, different doses): decreased MTT metabolism of all the TNBC cell lines studied in a dose-dependent and time-dependent manner
Body weight ([3]; F(I) 12 mg/kg, FIG. 3): slight decrease initially
Tolerability ([3]; alone or in combination, suggested by body weights, FIG. 6): well tolerated
F(I) concentration in the tumors [4]: 2.2 µg/g
concentration at 6 h ([4]; female, BALB/c nu/nu, mouse, tumor, iv, 12 mg/kg): 3800 ng/g
Toxicity in vivo relative to mithramycin (times less toxic) [5]: 10 times
MTT metabolism mean, Assay 1 (HBL-100 cells; F(I) 10 nM alone): 85.52%
MTT metabolism mean, Assay 2 (HBL-100 cells; F(I) 10 nM alone): 99.53%
MTT metabolism mean, Assay 1 (HBL-100 cells; F(I) 50 nM alone): 66.35%
MTT metabolism mean, Assay 2 (HBL-100 cells; F(I) 50 nM alone): 62.85%
MTT metabolism mean, Assay 1 (MDA-MB-231 cells; F(I) 10 nM alone): 94.27%
MTT metabolism mean, Assay 2 (MDA-MB-231 cells; F(I) 10 nM alone): 96.65%
MTT metabolism mean, Assay 1 (MDA-MB-231 cells; F(I) 50 nM alone): 70.05%
MTT metabolism mean, Assay 2 (MDA-MB-231 cells; F(I) 50 nM alone): 59.26%

Nc1ccn([C@@H]2O[C@H](CO)[C@@H](O)C2(F)F)c(=O)n1 [Gemcitabine, gemcitabine]
MTT metabolism mean, Assay 1 (HBL-100 cells; Gemcitabine 5 nM alone): 90.75%
MTT metabolism mean, Assay 2 (HBL-100 cells; Gemcitabine 5 nM alone): 88.93%
MTT metabolism mean, Assay 1 (HBL-100 cells; Gemcitabine 10 nM alone): 85.93%
MTT metabolism mean, Assay 2 (HBL-100 cells; Gemcitabine 10 nM alone): 83.52%
MTT metabolism mean, Assay 1 (HBL-100 cells; Gemcitabine 20 nM alone): 61.98%
MTT metabolism mean, Assay 2 (HBL-100 cells; Gemcitabine 20 nM alone): 80.59%
MTT metabolism mean, Assay 1 (MDA-MB-231 cells; Gemcitabine 5 nM alone): 77.29%
MTT metabolism mean, Assay 2 (MDA-MB-231 cells; Gemcitabine 5 nM alone): 90.99%
MTT metabolism mean, Assay 1 (MDA-MB-231 cells; Gemcitabine 10 nM alone): 67.76%
MTT metabolism mean, Assay 2 (MDA-MB-231 cells; Gemcitabine 10 nM alone): 84.33%
MTT metabolism mean, Assay 1 (MDA-MB-231 cells; Gemcitabine 20 nM alone): 48.14%
MTT metabolism mean, Assay 2 (MDA-MB-231 cells; Gemcitabine 20 nM alone): 64.95%

CCC1=C[C@@H]2CN(C1)Cc1c([nH]c3ccccc13)[C@@](C(=O)OC)(c1cc3c(cc1OC)N(C)[C@H]1[C@@](O)(C(=O)OC)[C@H](OC(C)=O)[C@]4(CC)C=CCN5CC[C@]31[C@@H]54)C2 [Vinorelbine, vinorelbine]
MTT metabolism mean, Assay 1 (MDA-MB-231 cells; Vinorelbine 1 nM alone): 94.11%
MTT metabolism mean, Assay 2 (MDA-MB-231 cells; Vinorelbine 1 nM alone): 73.02%
MTT metabolism mean, Assay 1 (MDA-MB-231 cells; Vinorelbine 3 nM alone): 84.61%
MTT metabolism mean, Assay 2 (MDA-MB-231 cells; Vinorelbine 3 nM alone): 71.99%
MTT metabolism mean, Assay 1 (MDA-MB-231 cells; Vinorelbine 5 nM alone): 84.42%
MTT metabolism mean, Assay 2 (MDA-MB-231 cells; Vinorelbine 5 nM alone): 56.42%
